From US7348328B2, “MCH antagonists for the treatment of obesity” (Schering Corporation, priority 2001, dated 2008) come the findings set out here.

pKi: −log10 of the molar value. Read-outs that look alike come from different tables or passages of the source.

Broadly, the pKi is the negative decadic logarithm of the Ki, by convention in mol/L.

The target in the assay is T1, MCH receptor (Homo sapiens, UniProt Q99705).
T1 construct: expressed in transfected cells; host or cells: CHO cells (membranes)
T1 sequence (Q99705 whole entry): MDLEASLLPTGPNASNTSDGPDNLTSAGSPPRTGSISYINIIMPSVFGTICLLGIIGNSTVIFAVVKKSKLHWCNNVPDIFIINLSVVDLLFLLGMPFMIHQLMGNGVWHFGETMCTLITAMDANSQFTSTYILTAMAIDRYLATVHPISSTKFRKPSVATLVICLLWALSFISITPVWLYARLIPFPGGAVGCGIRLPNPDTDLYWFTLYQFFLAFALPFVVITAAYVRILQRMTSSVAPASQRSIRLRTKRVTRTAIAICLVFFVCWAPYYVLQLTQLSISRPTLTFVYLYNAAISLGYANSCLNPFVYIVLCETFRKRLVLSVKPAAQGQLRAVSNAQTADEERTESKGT
Put plainly: MCH Receptor Binding Assay. Here is the method: MCH Receptor Binding Assay:
Membranes from CHO cells expressing the MCH receptor were prepared by lysing cells with 5 mM HEPES for 15 min at 4C. Cell lysates were centrifuged ([…], 15 min) and the pellet was resuspended in 5 mM HEPES. For each 96-well plate (Microlite, Dynex Technologies), 1 mg of cell membranes were incubated with 10 mg of wheat germ agglutinin SPA beads (Amersham) for 5 min at 4 C. in a volume of 10 ml of binding buffer (25 mM HEPES, 10 mM MGCl2, 10 mM NaCl, 5 mM MnCl2, 0.1% BSA). The membrane/bead mixture was centrifuged (1500×g, 3.5 min), the supernatant was aspirated, and the pellet was resuspended in 10 ml binding buffer. The centrifugation, aspiration and resuspension were then repeated. […] Nonspecific binding was determined by including 1 μM MCH in the binding reaction. The binding reaction was incubated at room temperature for 2 h. Plates were then analyzed in a TOPCOUNT microplate scintillation counter (Packard). Data was analyzed and Ki values were determined using GraphPad Prim.

[1] abbreviates: Table 1b, preferred compounds, read-out: MCH R1 Ki.
The mark [2] stands for this setting: Binding Activity, membranes from CHO cells expressing the MCH receptor, [125I]-MCH, read-out: MCH Ki.

For `CN(C)CCN(C(=O)Nc1ccc(Cl)c(Cl)c1)C1CC=C(c2cccc(C#N)c2)CC1` (stereo not shown), the pKi under setting [1] was 8.52. As to `N#Cc1cccc([C@@]23CC[C@@H](N(CCN4C[C@@H](O)[C@@H](O)C4)C(=O)Nc4ccc(F)c(Cl)c4)CC2C3)c1` (stereo partly shown), the pKi under setting [1] is 7.74.

In the case of `N#Cc1cccc(C2=CCC(N(CCN3CCCC3)C(=O)Nc3ccc(F)c(C(F)(F)F)c3)CC2)c1` (stereo not shown), under setting [1], the pKi was 8.57. Same read-out and setting: the result for `C[S+]([O-])c1cccc(C23CCC(N(CCCN4CCCC4)C(=O)Nc4ccc(Cl)c(Cl)c4)CC2C3)c1` (stereo not shown) reads 7.70; that for `CC(C)N(CCN(C(=O)Nc1cc(Cl)nc(Cl)c1)[C@@H]1CC[C@@]2(c3cccc(C#N)c3)CC2C1)C(C)CO` (stereo partly shown), 8.80; that for `CC(=O)Nc1cccc([C@@]23CC[C@@H](N(CCN4CCCC4)C(=O)Nc4ccc(F)c(C(F)(F)F)c4)CC2C3)c1` (stereo partly shown), 8.34. `CN1CCN(CCCN(C(=O)Nc2ccc(F)c(Cl)c2)[C@@H]2CC[C@]3(c4cccc(C#N)c4)C[C@@H]3C2)CC1`: under setting [1], the pKi is 8.38. Take `CC(=O)Nc1cccc([C@@]23CC[C@@H](N(CCCN4CCN(C)CC4)C(=O)Nc4ccc(F)c(Cl)c4)CC2C3)c1` (stereo partly shown): the pKi under setting [1] is 9.05.

For the molecule `N#Cc1cccc([C@@]23CC[C@@H](N(CCCN4CCC4)C(=O)Nc4ccc(F)c(F)c4)CC2C3)c1` (stereo partly shown), the pKi under setting [1] is 8.43. In the case of `N#Cc1ccc(C2=CCC(N(CCN3CCCC3)C(=O)Nc3ccc(F)c(Cl)c3)CC2)cc1` (stereo not shown), the pKi under setting [1] is 7.96.

Consider `O=C(Nc1ccc(F)c(F)c1)N(CCCN1CCCC1)[C@@H]1CC[C@@]2(c3cccc(-c4ncc[nH]4)c3)CC2C1` (stereo partly shown), for which, under setting [1], the pKi is 8.27. As for `O=C(Nc1ccc(F)c(Cl)c1)N(CCN1CCCC1)C1CC=C(c2cccc(Cl)c2)CC1` (stereo not shown), the pKi under setting [1] was 7.85. The same measure, in the same setting: in the case of `O=C(Nc1ccc(F)c(C(F)(F)F)c1)N(CCN1CCCC1)C1CC=C(c2cccc(Cl)c2)CC1` (stereo not shown) it was 7.92. Same read-out and setting: the result for `CN1CCN(CCCN(C(=O)Nc2ccc(F)c(C(F)(F)F)c2)[C@@H]2CC[C@@]3(c4ccc(C#N)cc4)CC23)CC1` (stereo partly shown) reads 8.52; that for `N#Cc1cccc([C@@]23CCC(N(CCN4CC[C@@H](O)C4)C(=O)Nc4cc(Cl)cc(Cl)c4)CC2C3)c1` (stereo partly shown), 8.46; that for `N#Cc1cccc([C@@]23CC[C@@H](N(CCCN4CC[C@@H](F)C4)C(=O)Nc4ccc(F)c(F)c4)CC2C3)c1` (stereo partly shown), 8.30. The same measure, in the same setting: in the case of `CN1CCN(CCCCN(C(=O)Nc2ccc(F)c(Cl)c2)[C@@H]2CC[C@]3(c4cccc(C#N)c4)C[C@H]23)CC1` it was 8.66; in that of `CN1CCN(CCCCN(C(=O)Nc2cc(Cl)nc(Cl)c2)C2CC[C@@]3(c4ccc(C#N)cc4)CC23)CC1` (stereo partly shown), 8.70; in that of `N#Cc1cccc([C@@]23CC[C@@H](N(CCCN4CC[C@@H](O)C4)C(=O)Nc4ccc(F)c(F)c4)CC2C3)c1` (stereo partly shown), 8.92. Turning to `N#Cc1cccc([C@@]23CC[C@@H](N(CCN4CC[C@@H](O)C4)C(=O)Nc4cc(Cl)cc(Cl)c4)CC2C3)c1` (stereo partly shown), the pKi under setting [1] was 7.89. Consider `N#Cc1cccc([C@@]23CC[C@@H](N(CCCN4CC[C@@H](O)C4)C(=O)Nc4cc(F)cc(F)c4)CC2C3)c1` (stereo partly shown), for which the pKi under setting [1] was 8.74.

As to `CS(=O)(=O)N1CCC(CN(C(=O)Nc2ccc(F)c(C(F)(F)F)c2)[C@@H]2CC[C@@]3(c4cccc(C#N)c4)CC3C2)CC1` (stereo partly shown), the pKi under setting [1] is 7.59. Regarding `N#Cc1cccc(C23CCC(N(CCN4CCCC4)C(=O)Nc4cc(Cl)cc(Cl)c4)C2C3)c1` (stereo not shown), under setting [1], the pKi is 7.82. Turning to `CN1CCN(CCCCN(C(=O)Nc2ccc(F)c(Cl)c2)C2CC[C@@]3(c4ccc(C#N)cc4)CC23)CC1` (stereo partly shown), under setting [1], the pKi was 8.54. As for `N#Cc1cccc(C23CCC(N(CCN4CCCC4)C(=O)Nc4ccc(F)c(Cl)c4)C2C3)c1` (stereo not shown), the pKi under setting [1] was 7.74. In the case of `CN1CCN(CCCN(C(=O)Nc2ccc(F)c(Cl)c2)[C@@H]2CC[C@]3(c4ccc(OC(F)(F)F)cc4)C[C@H]23)CC1`, under setting [1], the pKi is 7.89. As for `N#Cc1cccc([C@]23CCC(N(CCN4CC[C@@H](O)C4)C(=O)Nc4ccc(F)c(Cl)c4)[C@H]2C3)c1` (stereo partly shown), the pKi under setting [1] was 7.89. For `CC(C)N(CCF)CCN(C(=O)Nc1cc(Cl)nc(Cl)c1)[C@@H]1CC[C@@]2(c3cccc(C#N)c3)CC2C1` (stereo partly shown), the negative-log Ki (pKi) under setting [1] is 7.99. In the case of `N#Cc1cccc([C@@]23CC[C@@H](N(CCN4C[C@H]5C[C@H]5[C@H]4CO)C(=O)Nc4cc(Cl)nc(Cl)c4)CC2C3)c1` (stereo partly shown), the pKi under setting [1] was 8.52. As to `CC1(C)[C@H]2[C@@H](CO)N(CCCCN(C(=O)Nc3ccc(F)c(C(F)(F)F)c3)[C@@H]3CC[C@@]4(c5ccc(C#N)cc5)C[C@H]34)C[C@H]21`, the pKi under setting [1] was 8.10. On the same count and under the same terms, the result for `CNS(=O)(=O)NC1CCN(CCCN(C(=O)Nc2ccc(F)c(Cl)c2)[C@@H]2CC[C@@]3(c4cccc(C#N)c4)CC3C2)C1` (stereo partly shown) reads 8.31; that for `CS(=O)(=O)N1CCC(CN(C(=O)Nc2ccc(F)c(F)c2)[C@@H]2CC[C@@]3(c4cccc(C#N)c4)CC3C2)CC1` (stereo partly shown), 8.27. With `CC(C)N(CCN(C(=O)Nc1ccc(F)c(F)c1)C1CC[C@]2(c3cccc(C#N)c3)CC2C1)C(C)C` (stereo partly shown), the pKi under setting [1] is 8.55. Still for that read-out and setting: the result for `N#Cc1cccc([C@@]23CC[C@@H](N(CC4CCN(S(=O)(=O)N5CCOCC5)CC4)C(=O)Nc4ccc(F)c(F)c4)CC2C3)c1` (stereo partly shown) reads 7.35; that for `CNCCN(C(=O)Nc1ccc(F)c(Cl)c1)[C@@H]1CC[C@@]2(c3cccc(C#N)c3)CC2C1` (stereo partly shown), 8.04; that for `CC(C)N(CCN(C(=O)Nc1ccsc1)[C@H]1CC[C@]2(c3cccc(C#N)c3)CC2C1)C(C)C` (stereo partly shown), 7.95. In the case of `CC(C)N(CCN(C(=O)Nc1cccc(F)c1)[C@H]1CC[C@]2(c3cccc(C#N)c3)CC2C1)C(C)C` (stereo partly shown), the pKi under setting [1] was 8.68. Still for that read-out and setting: in the case of `CCOC(=O)NC1CCN(CCCN(C(=O)Nc2ccc(F)c(F)c2)[C@@H]2CC[C@@]3(c4cccc(C#N)c4)CC3C2)C1` (stereo partly shown) it was 8.23; in that of `N#Cc1cccc([C@]23CC[C@H](N(CC4CCN(CC5CC5)CC4)C(=O)Nc4ccc(F)c(Cl)c4)CC2C3)c1` (stereo partly shown), 8.00; in that of `CC(=O)NC1CCN(CCCN(C(=O)Nc2ccc(F)c(F)c2)[C@@H]2CC[C@@]3(c4cccc(C#N)c4)CC3C2)C1` (stereo partly shown), 8.24. In the case of `N#Cc1cccc([C@]23CC[C@H](N(CC4CCN(C5CCSC5)CC4)C(=O)Nc4ccc(F)c(Cl)c4)CC2C3)c1` (stereo partly shown), under setting [1], the pKi was 8.12. The same measure, in the same setting: in the case of `CCNS(=O)(=O)NC1CCN(CCCN(C(=O)Nc2ccc(F)c(F)c2)[C@@H]2CC[C@@]3(c4cccc(C#N)c4)CC3C2)C1` (stereo partly shown) it was 8.15; in that of `CN1CCN(CCCN(C(=O)Nc2ccc(F)c(Cl)c2)[C@@H]2CC[C@]3(c4cccc(Cl)c4)C[C@H]23)CC1`, 7.82; in that of `N#Cc1cccc([C@@]23CC[C@@H](N(CCCN4CCCC4)C(=O)Nc4ccc(F)c(F)c4)CC2C3)c1` (stereo partly shown), 8.96. With `CSc1cccc([C@@]23CC[C@@H](N(CCCN4CCCC4)C(=O)Nc4ccc(F)c(F)c4)CC2C3)c1` (stereo partly shown), the pKi under setting [1] is 7.66.

Take `CC(C)N(CCO)CCN(C(=O)Nc1cc(Cl)nc(Cl)c1)C1CC[C@@]2(c3cccc(C#N)c3)CC2C1` (stereo partly shown): the pKi under setting [1] is 8.80. Regarding `CC(=O)Nc1cccc(C23CC[C@@H](N(CCN4CC[C@@H](O)C4)C(=O)Nc4ccc(F)c(C(F)(F)F)c4)CC2C3)c1` (stereo partly shown), under setting [1], the pKi was 8.32.

As for `CN(C)CCN(C(=O)Nc1ccc(F)c(Cl)c1)[C@@H]1CC[C@]2(c3cccc(C#N)c3)C[C@H]12` [Example 187], the pKi under setting [2] was 7.85. On the same count and under the same terms, in the case of `N#Cc1cccc([C@]23CC[C@@H](N(CCN4CCCC4)C(=O)Nc4cc(Cl)cc(Cl)c4)[C@H]2C3)c1` [Example 188] it was 7.82. For the molecule `N#Cc1cccc([C@]23CC[C@@H](N(CCN4CCCC4)C(=O)Nc4ccc(F)c(Cl)c4)[C@H]2C3)c1` [Example 189], the pKi under setting [2] was 7.74. Consider `N#Cc1cccc([C@@]23CCC(N(CCN4CC[C@@H](O)C4)C(=O)Nc4ccc(F)c(Cl)c4)[C@@H]2C3)c1` (stereo partly shown) [Example 190], for which, under setting [2], the pKi was 7.89. As for `N#Cc1cccc([C@]23CC[C@@H](N(CCN4CC[C@@H](O)C4)C(=O)Nc4ccc(F)c(Cl)c4)[C@H]2C3)c1` [Example 191], the pKi under setting [2] is 7.66. Turning to `N#Cc1cccc([C@]23CC[C@@H](N(CCN4CC[C@@H](O)C4)C(=O)Nc4ccc(F)c(C(F)(F)F)c4)[C@H]2C3)c1` [Example 193], under setting [2], the pKi was 8.15.

`N#Cc1cccc([C@]23CC[C@@H](N(CCN4CCCCC4)C(=O)Nc4ccc(F)c(Cl)c4)[C@H]2C3)c1` [Example 194]: the pKi under setting [2] was 8.39. Regarding `CN(C)CCCCN(C(=O)Nc1ccc(F)c(Cl)c1)[C@@H]1CC[C@]2(c3cccc(C#N)c3)C[C@H]12` [Example 195], under setting [2], the pKi is 8.00.

With `N#Cc1cccc([C@]23CC[C@@H](N(CCCCN4CCCC4)C(=O)Nc4ccc(F)c(Cl)c4)[C@H]2C3)c1` [Example 196], under setting [2], the pKi was 8.41. Turning to `O=C(Nc1ccc(F)c(C(F)(F)F)c1)N(CCN1CC[C@@H](O)C1)[C@@H]1CC[C@]2(c3cccc(Br)c3)C[C@H]12` [Example 197], the pKi under setting [2] is 7.10. With `N#Cc1cccc([C@]23CC[C@@H](N(CCN4CC[C@@H](O)C4)C(=O)Nc4ccc(F)c(C(F)(F)F)c4)[C@H]2C3)c1` [Example 198], the pKi under setting [2] is 7.96. As for `N#Cc1cccc([C@@]23CCC(N(CCN4CC[C@@H](O)C4)C(=O)Nc4ccc(F)c(C(F)(F)F)c4)[C@@H]2C3)c1` (stereo partly shown) [Example 199], the pKi under setting [2] was 7.64. As for `CN1CCN(CCN(C(=O)Nc2ccc(F)c(C(F)(F)F)c2)[C@@H]2CC[C@]3(c4cccc(C#N)c4)C[C@H]23)CC1` [Example 206], the pKi under setting [2] is 7.52.

As to `CCCN1CCN(CCN(C(=O)Nc2ccc(F)c(C(F)(F)F)c2)[C@@H]2CC[C@]3(c4cccc(C#N)c4)C[C@H]23)CC1` [Example 207], the pKi under setting [2] is 7.66.
